EP1421935A1 (Casini, Angela, priority 2002, dated 2004)
In brackets after ≈: the same amount, converted by molar mass. Marks after values point to notes of the source that are not given here.

Key:
[1] = chloroform-buffer partition coefficient; assay type: physicochemical; settings: pH 7.4 phosphate buffer, B compounds as sodium salts
Procedure: The determination of partition coefficient is performed as follows. Chloroform - buffer partition coefficients are obtained by equilibrating the test compound between chloroform and 0.1-ionic strength pH 7.4 phosphate buffer. The concentration in each phase is determined by UV spectrophotometry or HPLC.

[2] = system: IOP of normotensive rabbits; assay: tonometric measurement of IOP after topical administration; assay type: in vivo, New Zealand albino rabbits; settings: for Δ IOP ± SE (mm Hg) 30 min: 30 min after one drop (50 µL) of 2% solution; for Δ IOP ± SE (mm Hg) 30 min / Δ IOP ± SE (mm Hg) 60 min / Δ IOP ± SE (mm Hg) 90 min: topical, IOP control eye - IOP treated eye (N = 3); for Δ IOP ± SE (mm Hg) 60 min: 60 min after one drop (50 µL) of 2% solution; for Δ IOP ± SE (mm Hg) 90 min: 90 min after one drop (50 µL) of 2% solution; for IOP returns to baseline values after ... from administration: topical 2% solution (Fig. 2)
Procedure: Tonometric measurement of IOP are performed as follows.
Adult male New Zealand albino rabbits weighing 3-3.5 kg are used in the experiments. Three animals are used for each inhibitor studied. The experimental procedures conform to the Association for Research in Vision and Ophthalmology Resolution on the use of animals. The rabbits are kept in individual cages with food and water provided ad libitum and maintained on a 12 h light/dark cycle in a temperature controlled room, at 22-26 °C. Solutions and suspensions of inhibitors (2 %, by weight, as hydrochlorides, or sodium carboxylates) are made in distilled deionized water. The pH of these solutions is in the range of 5.5 - 7.4.
IOP is measured using a Digilab 30R pneumatonometer (BioRad, Cambridge, MA, USA) as described by Maren et al. (Maren et al., Exp. Eye Res. 55:73-79, 1992; Brechue et al., Invest. Ophthalmol. Vis. Sci. 34:2581-2587,1993). The pressure readings are matched with two-point standard pressure measurements at least twice each day using a Digilab Calibration verifier. All IOP measurements are done by the same investigator with the same tonometer. One drop of 0.2 % oxybuprocaine hydrochloride (novesine, Sandoz) diluted 1:1 with saline is instilled in each eye immediately before each set of pressure measurements. IOP is measured three times at each time interval, and the means reported. IOP is measured first immediately before drug administration, then at 30 min after the instillation of the pharmacological agent, and then each 30 minutes for a period of 4-6 hours. For all IOP experiments drug is administered to only one eye, leaving the contralateral eye as an untreated control. The ocular hypotensive activity is expressed as the average difference in IOP between the treated and control eye, in this way minimizing the diurnal, seasonal and inter-individual variations commonly observed in the rabbit (Id.). All data are expressed as mean ± SE. Ocular hypertension is elicited in the right eye of albino rabbits by the injection of α-chymotrypsin (from Sigma) as described by Sugrue et al. (Sugrue et al., Br. J. Pharmacol. 99:59-64, 1990). The IOP of operated animals is checked after approximately four weeks, and animals with an elevated pressure of 30-36 mm Hg are used at least one month after the injection of α-chymotrypsin.
In vivo IOP lowering experiments are done in normotensive and glaucomatous rabbits, with many of the new compounds reported here, due to their strong CA II and CA IV inhibitory properties, such as B7, B10-B13, B15, B18-B22, B25, B27, B28, B33, B37, and A40. […] Measurements are at 30, 60 and 90 min after administration Table 3.

[3] = transcorneal penetration of drugs (in vitro corneal permeability); settings: rate constant of transfer across excised rabbit cornea, pH 7.4; for kin x 10^3 (hr^-1) No epithelium: denuded epithelium; for kin x 10^3 (hr^-1) Cornea intact: intact epithelium
Procedure: The determination of transcorneal penetration of drugs is performed as follows. […] Excised rabbit corneas with either intact or denuded epithelium are used in these experiments. The pH is 7.4 and exposed area is 1.2 cm^2. Concentrations of drug of 40 - 2000 µM are placed in the epithelial chamber and samples of fluid are collected from the endothelial chamber at different intervals, up to 4 hr.

[4] = solubility in aqueous buffer (UV of saturated solution); settings: phosphate buffer, 25 °C, pH 7.4, aqueous buffer, thermodynamic from solid
Procedure: The determination of solubility in aqueous buffer is performed as follows. […] The UV absorption maximum of each compound is determined (with a Cary 3 spectrophotometer) eventually diluting the solution (with MeOH) as necessary. […] The obtained saturated solution is filtered in order to remove solid compound through a Millipore 0.45 µm filter and scanned by UV at the wavelength of the absorption maximum previously determined. Total solubility is determined by the relationship: C' = A'C/A, where C = concentration of standard solution (mg/mL); A = absorbance of standard solution; A' = absorbance of the saturated solution; C' = concentration of the saturated solution (mg/mL).

bCA IV = molecular target: T1, bCA IV (Bos taurus, UniProt Q95323); assay: CA inhibition, esterase method (4-nitrophenylacetate hydrolysis)
T1 sequence (Q95323 19-284): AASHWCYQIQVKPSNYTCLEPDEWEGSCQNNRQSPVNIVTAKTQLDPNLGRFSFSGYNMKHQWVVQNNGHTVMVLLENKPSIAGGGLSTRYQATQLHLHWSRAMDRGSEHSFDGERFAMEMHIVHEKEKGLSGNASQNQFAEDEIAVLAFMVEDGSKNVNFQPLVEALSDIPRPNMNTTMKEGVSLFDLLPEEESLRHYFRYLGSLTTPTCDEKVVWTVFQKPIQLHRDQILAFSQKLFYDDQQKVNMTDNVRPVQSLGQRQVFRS
Procedure: (§1) Stock solutions of inhibitor (1 mM) are prepared in distilled-deionized water with 10-20% (v/v) DMSO (which is not inhibitory at these concentrations) and dilutions up to 0.01 nM are done thereafter with distilled-deionized water. Inhibitor and enzyme solutions are preincubated together for 10 min at room temperature prior to assay, in order to allow for the formation of the E-I complex.

[5] = drug distribution in ocular fluids and tissues after topical administration; assay type: in vivo, albino rabbits; settings: mean ± standard deviation (n= 3)
hCA II = hCA II (Homo sapiens, UniProt P00918); assay: CA inhibition, esterase method (4-nitrophenylacetate hydrolysis)
Procedure: as §1

hCA I = hCA I (Homo sapiens, UniProt P00915); assay: as above
Sequence of hCA I (P00915 whole entry): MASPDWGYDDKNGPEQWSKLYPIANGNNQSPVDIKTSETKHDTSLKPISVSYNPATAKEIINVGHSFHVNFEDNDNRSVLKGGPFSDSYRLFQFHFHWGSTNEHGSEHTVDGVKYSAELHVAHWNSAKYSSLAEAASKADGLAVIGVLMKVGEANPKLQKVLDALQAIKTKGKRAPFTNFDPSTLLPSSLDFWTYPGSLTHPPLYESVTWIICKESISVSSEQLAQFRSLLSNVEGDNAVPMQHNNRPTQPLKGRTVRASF
Procedure: as §1

[6] = 1h after corneal application of one drop (50 µL) of 2% solution
[7] = 2h after corneal application of one drop (50 µL) of 2% solution

Row | Structure (SMILES) | Log P [1] | Δ IOP ± SE (mm Hg) 30 min [2] | Δ IOP ± SE (mm Hg) 30 min ([2]; listed as dorzolamide) | Δ IOP ± SE (mm Hg) 60 min [2] | Δ IOP ± SE (mm Hg) 60 min ([2]; listed as dorzolamide) | Δ IOP ± SE (mm Hg) 90 min [2] | kin x 10^3 (hr^-1) No epithelium [3] | kin x 10^3 (hr^-1) Cornea intact [3] | solubility at 3 h [4] | Ki (bCA IV) | Drug concentration (µM) Aqueous humor [5, 6] | Drug concentration (µM) Ciliary process [5, 6] | Drug concentration (µM) Cornea [5, 6] | Drug concentration (µM) Aqueous humor [5, 7] | Drug concentration (µM) Ciliary process [5, 7] | Drug concentration (µM) Cornea [5, 7] | Ki (hCA II) | Ki (hCA I) | solubility [4] | IOP returns to baseline values after ... from administration [2]
1 | CCN[C@H]1C[C@H](C)S(=O)(=O)c2sc(S(N)(=O)=O)cc21 [Dorzolamide, dorzolamide, reference compound] | 2.0^e | 2.2±0.15 mm Hg | 2.2 mm Hg | 4.1±0.15 mm Hg | 4.1 mm Hg | 2.7±0.10 mm Hg | 5.2 hr^-1 | 3.0 hr^-1 | 60 mM (≈ 19.5 mg/mL) | – | – | – | – | – | – | – | – | – | – | –
2 | NS(=O)(=O)c1ccc(CNC(=S)Nc2ccc(C(=O)O)cc2)cc1 [B13] | 1.428 | 1.2±0.15 mm Hg | – | 7.0±0.15 mm Hg | – | 10.3±0.20 mm Hg | 9.1 hr^-1 | 3.3 hr^-1 | – | 21 nM | 204 ± 13 µM | 50 ± 7 µM | 123 ± 9 µM | 62 ± 4 µM | 23 ± 2 µM | 76 ± 5 µM | 9 nM | 47 nM | 46 mM (≈ 16.8 mg/mL) | –
3 | NS(=O)(=O)c1ccc(CNC(=S)NC(C(=O)O)C(O)c2ccccc2)cc1 (stereo not shown) [B20] | 2.518 | – | – | – | – | – | 10.7 hr^-1 | 4.9 hr^-1 | – | 7 nM | 205 ± 12 µM | 49 ± 5 µM | 133 ± 10 µM | 53 ± 5 µM | 15 ± 1 µM | 70 ± 9 µM | 1 nM | 20 nM | 51 mM (≈ 20.9 mg/mL) | 5 to 6 h
4 | NS(=O)(=O)c1ccc(CNC(=S)NC(CO)C(=O)O)cc1 (stereo not shown) [B19] | 1.662 | – | – | – | – | – | 8.5 hr^-1 | 3.3 hr^-1 | – | 9 nM | – | – | – | – | – | – | 2 nM | 23 nM | 70 mM (≈ 23.3 mg/mL) | 5 to 6 h
5 | NS(=O)(=O)c1ccc(CNC(=S)Nc2ccccc2C(=O)O)cc1 [B11] | 1.238 | – | – | – | – | – | 8.3 hr^-1 | 2.9 hr^-1 | – | 23 nM | – | – | – | – | – | – | 11 nM | 54 nM | 41 mM (≈ 15 mg/mL) | –
6 | NS(=O)(=O)c1ccc(CNC(=S)Nc2cccc(C(=O)O)c2)cc1 [B12] | 1.313 | – | – | – | – | – | 8.7 hr^-1 | 3.0 hr^-1 | – | 29 nM | – | – | – | – | – | – | 10 nM | 38 nM | 40 mM (≈ 14.6 mg/mL) | –
